Drawing on US20250197382A1, “KIF18A INHIBITOR” (WIGEN BIOMEDICINE TECHNOLOGY (SHANGHAI) CO., LTD., priority 2022, published 2025), this text covers IC50 for 28 molecules.

In assay [1] the target is Recombinant human KIF18A (1-467His-tagged) protein (Homo sapiens (Human), UniProt Q8NI77). As to the kind of experiment: KIF18A enzyme assay (microtubule-stimulated ATPase activity, ADP-Glo). In kind it is biochemical. Particulars: 30 nM KIF18A, ATP 75 μM, read-out: inhibitory activity against KIF18A IC50. The method, boiled down: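 Baculovirus-expressed human KIF18A (1-467, His-tagged; 30 nM) preincubated 15 min at room temperature with compound (22-point 2-fold series) in pH 7.5 Tris buffer containing 30 μg/mL pig microtubules and 1 μM paclitaxel.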
Sequence of Recombinant human KIF18A (1-467His-tagged) protein (Q8NI77 1-467): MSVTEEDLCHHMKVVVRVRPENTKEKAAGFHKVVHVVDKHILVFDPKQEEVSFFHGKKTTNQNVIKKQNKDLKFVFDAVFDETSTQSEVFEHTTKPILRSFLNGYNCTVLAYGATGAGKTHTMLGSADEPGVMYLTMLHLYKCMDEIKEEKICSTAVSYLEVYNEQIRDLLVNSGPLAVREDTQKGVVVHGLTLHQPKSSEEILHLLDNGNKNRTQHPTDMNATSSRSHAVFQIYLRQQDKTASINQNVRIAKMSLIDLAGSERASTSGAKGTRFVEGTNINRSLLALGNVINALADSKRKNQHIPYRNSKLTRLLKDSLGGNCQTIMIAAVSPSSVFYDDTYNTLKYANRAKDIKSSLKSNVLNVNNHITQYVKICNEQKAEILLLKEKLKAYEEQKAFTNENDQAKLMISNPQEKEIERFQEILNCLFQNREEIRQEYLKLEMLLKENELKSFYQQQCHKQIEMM
Sequence of Recombinant human KIF18A (1-467His-tagged) protein (P02550 whole entry partner): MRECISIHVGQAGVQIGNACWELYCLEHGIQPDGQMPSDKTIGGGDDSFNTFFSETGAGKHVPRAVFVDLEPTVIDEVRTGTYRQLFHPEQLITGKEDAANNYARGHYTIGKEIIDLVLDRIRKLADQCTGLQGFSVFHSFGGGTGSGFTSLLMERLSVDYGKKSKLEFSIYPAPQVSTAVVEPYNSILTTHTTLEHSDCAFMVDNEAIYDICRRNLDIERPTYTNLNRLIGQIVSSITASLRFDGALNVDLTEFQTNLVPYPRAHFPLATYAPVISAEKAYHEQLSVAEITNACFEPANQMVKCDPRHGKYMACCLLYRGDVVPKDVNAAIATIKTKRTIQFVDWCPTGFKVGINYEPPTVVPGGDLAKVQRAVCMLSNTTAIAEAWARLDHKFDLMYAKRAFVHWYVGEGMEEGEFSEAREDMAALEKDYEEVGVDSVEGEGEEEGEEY
Sequence of Recombinant human KIF18A (1-467His-tagged) protein (P02554 whole entry partner): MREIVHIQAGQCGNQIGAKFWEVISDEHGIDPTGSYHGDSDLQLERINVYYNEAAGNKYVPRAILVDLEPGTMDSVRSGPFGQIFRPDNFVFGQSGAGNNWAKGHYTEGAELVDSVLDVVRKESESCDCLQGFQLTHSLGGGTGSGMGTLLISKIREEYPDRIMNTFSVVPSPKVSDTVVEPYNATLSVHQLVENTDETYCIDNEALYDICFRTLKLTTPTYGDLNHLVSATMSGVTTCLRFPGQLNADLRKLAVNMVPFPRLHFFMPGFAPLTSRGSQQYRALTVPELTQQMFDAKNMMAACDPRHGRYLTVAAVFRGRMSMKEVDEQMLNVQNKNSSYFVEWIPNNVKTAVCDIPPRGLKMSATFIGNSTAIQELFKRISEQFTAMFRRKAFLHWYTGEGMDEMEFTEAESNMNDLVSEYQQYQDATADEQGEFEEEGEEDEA

Another assay has as its system HT-29 cells. As to the kind of experiment: In vitro anti-proliferative activity against HT-29 cells (intracellular ATP content, 72 h). Format: cell-based. As to conditions: Homo sapiens, 72 h after dosing. As to the method:
Biological Example 2. In Vitro Anti-Proliferative Activity of Compounds of the Present Invention Against HT-29 Cells
HT-29 cells were seeded on a 384-well plate at 3000 cells/well. After overnight adherence culture, DMSO or the compounds serially diluted in a 1:5 ratio from 5 μM were added. The viability was assessed 72 h after dosing by measuring the intracellular ATP content. The inhibition percentages of viable cells by the compounds were calculated by comparing with the DMSO group, and the […] values were also calculated.

The test system of the next assay is HCT116 cells. As to the kind of experiment: In vitro anti-proliferative activity against HCT116 cells (intracellular ATP content, 72 h). In kind it is cell-based. Particulars: Homo sapiens, HCT-116, 72 h after dosing. As to the method:
Biological Example 3. In Vitro Anti-Proliferative Activity of Compounds of the Present Invention Against HCT116 Cells
HCT116 cells were seeded on a 384-well plate at 3000 cells/well. After overnight adherence culture, DMSO or the compounds serially diluted in a 1:5 ratio from 5 μM were added. The viability was assessed 72 h after dosing by measuring the intracellular ATP content. The inhibition percentages of viable cells by the compounds were calculated by comparing with the DMSO group, and the IC50 values were also calculated.

What is called IC50 is the point on the concentration scale where inhibition reaches its midpoint. Regarding `O=C(Nc1cc2c(c(OC3CCC3)n1)OCC2)c1ccc(NS(=O)(=O)CCO)cc1N1CCC2(CC1)CC2` [Compound 71], the IC50 is not above 100 nM in assay [1], 56 nM in the assay on HT-29 cells and more than 10000 nM in the assay on HCT116 cells.
The corresponding values for `O=C(Nc1cc(N2CCC(F)(F)CC2)c2ncccc2c1)c1ccc(NS(=O)(=O)CCO)cc1N1CCC2(CC1)CC2` [Compound 530] are not above 100 nM, 36 nM and more than 10000 nM.
The corresponding values for `O=C(Nc1cc2c(c(N3CC(F)(F)C3)n1)OCC2)c1ccc(NS(=O)(=O)CCO)cc1N1CCC2(CC1)CC2` [Compound 68] are not above 100 nM, 51 nM and more than 10000 nM.
Consider `C[C@@H]1CN(c2cc(NC(=O)c3ccc(NS(=O)(=O)CCO)cc3N3CCC4(CC3)CC4)cc3c2OCC3)CCO1` [Compound 2], for which the figures for the IC50 (in assay [1]; in the assay on HCT116 cells) were not above 100 nM and more than 10000 nM, respectively.
For the molecule `C[C@H]1CN(c2nc(NC(=O)c3ccc(NS(=O)(=O)CCO)cc3N3CCC4(CC3)CC4)cc3c2OCC3)CCO1` [Compound 67], the 50% inhibitory concentration (IC50) in assay [1] is not above 100 nM; in the assay with HCT116 cells, more than 10000 nM.
Turning to `O=C(Nc1cc2cccnc2c(N2CCC(F)(F)CC2)n1)c1ccc(NS(=O)(=O)CCO)cc1N1CCC2(CC1)CC2` [Compound 583], the IC50 with HT-29 cells is 38 nM; in the assay with HCT116 cells it was more than 10000 nM.
Regarding `O=C(Nc1cc2c(c(N3CCC(F)(F)CC3)c1)OCC2)c1ccc(NS(=O)(=O)CCO)cc1N1CCC2(CC1)CC2` [Compound 1], the IC50 in assay [1] was not above 100 nM; in the assay with HT-29 cells, 9 nM; in the assay with HCT116 cells, more than 10000 nM.
Turning to `O=C(Nc1ccc(NS(=O)(=O)CCO)cc1N1CCC2(CC1)CC2)c1cc2c(c(N3CCC(F)(F)CC3)n1)OCC2` [Compound 97], the 50% inhibitory concentration (IC50) was not above 100 nM in assay [1], 57 nM with HT-29 cells and more than 10000 nM with HCT116 cells.
As to `Cn1ccc2cc(NC(=O)c3ccc(NS(=O)(=O)CCO)cc3N3CCC4(CC3)CC4)cc(N3CCC(F)(F)CC3)c21` [Compound 385], the 50% inhibitory concentration (IC50) is not above 100 nM in assay [1] and more than 10000 nM in the assay on HCT116 cells.
Regarding `O=C(Nc1cc2cc[nH]c2c(N2CCC(F)(F)CC2)n1)c1ccc(NS(=O)(=O)CCO)cc1N1CCC2(CC1)CC2` [Compound 522], the IC50 in assay [1] was not above 100 nM; in the assay on HT-29 cells, 69 nM; in the assay on HCT116 cells, 8190 nM.
`O=C(Nc1cc2c(c(N3CCC4(CC4)C3)c1)OCC2)c1ccc(NS(=O)(=O)CCO)cc1N1CCC2(CC1)CC2` [Compound 6]: the values for the IC50 (in assay [1]; with HCT116 cells) were not above 100 nM and more than 10000 nM, respectively.
The corresponding values for `C[C@H]1CN(c2cc(NC(=O)c3ccc(NS(=O)(=O)CCO)cc3N3CCC4(CC3)CC4)cc3c2OCC3)CCO1` [Compound 3] are not above 100 nM and more than 10000 nM.
For the molecule `O=C(Nc1cc(N2CCC(F)(F)CC2)c2ocnc2c1)c1ccc(NS(=O)(=O)CCO)cc1N1CCC2(CC1)CC2` [Compound 513], the concentration for half-maximal inhibition (IC50) in assay [1] was not above 100 nM; in the assay on HT-29 cells, 71 nM; in the assay with HCT116 cells it was more than 10000 nM.
For `Cc1cc(NC(=O)c2ccc(NS(=O)(=O)CCO)cc2N2CCC3(CC2)CC3)nc(N2CCC(F)(F)CC2)n1` [AMG650, reference compound], the IC50 was 89 nM in the assay on HT-29 cells and more than 10000 nM with HCT116 cells.
For `C[C@@H]1CN(c2nc(NC(=O)c3ccc(NS(=O)(=O)CCO)cc3N3CCC4(CC3)CC4)cc3c2OCC3)CCO1` [Compound 66], the IC50 in assay [1] is not above 100 nM; in the assay on HT-29 cells, 85 nM; in the assay with HCT116 cells, more than 10000 nM.
The corresponding values for `O=C(Nc1ccc(S(=O)(=O)NCCO)cc1N1CCC2(CC1)CC2)c1cc2c(c(N3CCC(F)(F)CC3)n1)OCC2` [Compound 113] are not above 100 nM, 81 nM and more than 10000 nM.
For `O=C(Nc1ccc(NS(=O)(=O)CCO)cc1N1CCC2(CC1)CC2)c1cc2c(c(N3CCC(F)(F)CC3)c1)OCC2` [Compound 33], the 50% inhibitory concentration (IC50) was not above 100 nM in assay [1], 52 nM in the assay on HT-29 cells and more than 10000 nM with HCT116 cells.
For `O=C(Nc1ccc(NS(=O)(=O)CCO)cc1N1CCC2(CC1)CC2)c1cc2c(c(OCCC(F)(F)F)c1)OCC2` [Compound 5], the half-inhibitory concentration (IC50) is 88 nM in the assay with HT-29 cells and more than 10000 nM in the assay on HCT116 cells.
For the molecule `O=C(Nc1cc2c(c(OC3CCC3)c1)OCC2)c1ccc(NS(=O)(=O)CCO)cc1N1CCC2(CC1)CC2` [Compound 7], the IC50 was not above 100 nM in assay [1], 73 nM in the assay with HT-29 cells and more than 10000 nM in the assay on HCT116 cells.
The corresponding values for `O=C(Nc1cc2c(c(OCCC(F)(F)F)n1)OCC2)c1ccc(NS(=O)(=O)CCO)cc1N1CCC2(CC1)CC2` [Compound 69] are not above 100 nM, 71 nM and more than 10000 nM.
Regarding `O=C(Nc1cc2c(c(N3CCC4(CC4)C3)n1)OCC2)c1ccc(NS(=O)(=O)CCO)cc1N1CCC2(CC1)CC2` [Compound 70], the concentration for half-maximal inhibition (IC50) in assay [1] is not above 100 nM; in the assay on HCT116 cells it was more than 10000 nM.
As for `O=C(Nc1cc2c(c(N3CCC(F)(F)CC3)n1)OCC2)c1ccc(S(=O)(=O)NCCO)cc1N1CCC2(CC1)CC2` [Compound 81], the 50% inhibitory concentration (IC50) was not above 100 nM in assay [1], 51 nM in the assay on HT-29 cells and more than 10000 nM with HCT116 cells.
With `O=C(Nc1cc2c(c(N3CCC(F)(F)CC3)n1)OCC2)c1ccc(NS(=O)(=O)CCO)cc1N1CCC2(CC1)CC2` [Compound 65], the IC50 in assay [1] was not above 100 nM; in the assay on HT-29 cells, 8 nM; with HCT116 cells, more than 10000 nM.
The corresponding values for `O=C(Nc1ccc(S(=O)(=O)NCCO)cc1N1CCC2(CC1)CC2)c1cc2c(c(N3CCC(F)(F)CC3)c1)OCC2` [Compound 49] are not above 100 nM, 61 nM and more than 10000 nM.
The corresponding values for `O=C(Nc1cc2c(c(N3CC(F)(F)C3)c1)OCC2)c1ccc(NS(=O)(=O)CCO)cc1N1CCC2(CC1)CC2` [Compound 4] are not above 100 nM, 63 nM and more than 10000 nM.
The corresponding values for `O=C(Nc1cc2c(c(N3CCC(F)(F)CC3)c1)OCCC2)c1ccc(NS(=O)(=O)CCO)cc1N1CCC2(CC1)CC2` [Compound 539] are not above 100 nM, 43 nM and more than 10000 nM.
For `O=C(Nc1cc(N2CCC(F)(F)CC2)c2occc2c1)c1ccc(NS(=O)(=O)CCO)cc1N1CCC2(CC1)CC2` [Compound 129], the 50% inhibitory concentration (IC50) in assay [1] was not above 100 nM; in the assay with HT-29 cells, 40 nM; in the assay with HCT116 cells, more than 10000 nM.
`O=C(Nc1ccc(NS(=O)(=O)CCO)cc1N1CCC2(CC1)CC2)c1cc2cccnc2c(N2CCC(F)(F)CC2)n1` [Compound 584]: the half-inhibitory concentration (IC50) in the assay with HT-29 cells is 70 nM; in the assay on HCT116 cells, more than 10000 nM.
